# Laboratory results published in patent US20220305017A1, “COMPOSITIONS AND METHODS FOR THE TREATMENT OF ESTROGEN-DEPENDENT DISORDERS” (ObsEva S.A., priority 2019, published 2022).
# Tests used:
# [1] = system: human female patients diagnosed as having uterine fibroids; experiment: PRIMROSE 1 Phase 3 placebo-controlled trial in uterine fibroids; assay type: in vivo; conditions: for proportion of patients with menstrual blood loss ≤80 mL and ≥50% reduction from baseline: 24 weeks
# Source text: This example describes the results of two Phase 3, double-blind, randomized, placebo-controlled, multicenter, human clinical trials undertaken to evaluate the efficacy of the GnRH antagonist represented by formula (VI) in a series of patients suffering from uterine fibroids. In these trials, referred to herein as “PRIMROSE 1” and “PRIMROSE 2,” human female patients diagnosed as having uterine fibroids were periodically administered compound (VI), 3-[2-fluoro-5-(2,3-difluoro-6-methoxybenzyloxy)4-methoxyphenyl]-2,4-dioxo-1,2,3,4-tetrahydrothieno [3,4d]pyrimidine-5-carboxylic acid, in the form of a choline salt over the course of a 12-month treatment period. Patients were administered compound (VI) once daily in an amount of either 100 mg or 200 mg. Patients receiving compound (VI) in a daily amount of 200 mg also received once daily hormonal add-back therapy (ABT), which consisted of […] of β17-estradiol (E2) per day and 0.5 mg of norethindrone acetate (NETA) per day.
# The PRIMROSE 1 study, conducted in the United States, enrolled 526 women. The PRIMROSE 2 study, conducted in the United States and Europe, enrolled 535 women.
# Patients were randomized to one of several cohorts: (i) placebo, (ii) 100 mg/day of compound (VI), or (iii) 200 mg/day of compound (VI). Patients receiving 200 mg/day of compound (VI) also received once-daily ABT containing 1.0 mg E2 and 0.5 mg NETA.
# Patients were assessed for uterine fibroid symptomology at baseline, after 24 weeks of treatment, and again after 52 weeks of treatment. […] Patients were also assessed in order to determine the number of days of uterine bleeding during their last 28-day interval prior to week 24 of treatment with placebo or compound (VI).
# Pain levels were measured using a Verbal Rating Score (VRS), as described herein. Patients were also assessed to determine the proportion that reported an improvement in quality of life using the Uterine Fibroids Symptoms and Health-Related Quality of Life questionnaire.
# To evaluate the safety of compound (VI), patients' bone mineral density levels were measured at baseline and at various timepoints during the studies.
# human GnRH receptor = target: T1, human GnRH receptor (Homo sapiens, UniProt P30968); experiment: affinity for human GnRH receptor; assay type: binding; conditions: compound (VI) as well as its salts such as the choline salt; kind of constant not stated
# T1 sequence (P30968 1-328): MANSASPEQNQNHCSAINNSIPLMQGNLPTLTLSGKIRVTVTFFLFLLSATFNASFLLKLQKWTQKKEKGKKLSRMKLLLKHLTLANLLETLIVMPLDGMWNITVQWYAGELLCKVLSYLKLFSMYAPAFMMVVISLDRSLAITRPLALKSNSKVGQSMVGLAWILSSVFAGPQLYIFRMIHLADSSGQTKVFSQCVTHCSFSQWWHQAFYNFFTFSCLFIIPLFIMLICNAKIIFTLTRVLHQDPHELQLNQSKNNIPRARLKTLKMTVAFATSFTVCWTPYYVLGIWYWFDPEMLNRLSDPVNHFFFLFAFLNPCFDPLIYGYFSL
# [2] = system: human female patients diagnosed as having endometriosis; experiment: Phase 2b human clinical trial in endometriosis, 24-week treatment and post-treatment follow-up; assay type: in vivo; conditions: for Bone Mineral Density (Mean % change from baseline): spine
# Experimental: This example describes the results of a Phase 2b human clinical trial undertaken to evaluate the efficacy of a GnRH antagonist represented by formula (VI) in a series of patients suffering from an estrogen-dependent disease. In this trial, a series of human female patients diagnosed as having endometriosis were administered the choline salt of 3-[2-fluoro-5-(2,3-difluoro-6-methoxybenzyloxy)4-methoxyphenyl]-2,4-dioxo-1,2,3,4-tetrahydrothieno [3,4d]pyrimidine-5-carboxylic acid periodically over the course of a 24-week treatment period. After 24 weeks of treatment, various patients entered a 24-week post-treatment follow-up period during which the patients were monitored for serum β17-estradiol (E2) concentration, severity of disease symptoms, and bone mineral density.
# A series of n=328 human female patients having clinically-diagnosed endometriosis were randomly assigned to treatment arms in which patients were to be administered placebo or the GnRH antagonist in a once-daily amount of 50 mg/day, 100 mg/day, 75 mg/day, or 200 mg/day. Patients initially treated with placebo (plc) were administered the GnRH antagonist in an amount of 100 mg/day after 12 weeks. Also, after 12 weeks, patients that were initially administered 75 mg/day were provided a higher (100 mg/day) or lower (50 mg/day) dosage of the GnRH antagonist based on the patients' E2 levels at the 12-week point. The E2 levels for this group of patients is represented by “75 mg (TD)” in FIGS. 1-3. Patients that were administered 75 mg through the end of the treatment period are represented by “75 mg (FD)” in FIGS. 1-3.
# After 24 weeks of continuous, once-daily treatment, administration of the GnRH antagonist ceased. A set of n=65 patients entered the 24-week post-treatment follow-up study. Following the 24-week treatment period, these patients were periodically monitored. The median E2 levels of patients that were administered the GnRH antagonist during the original 24-week treatment period and that subsequently entered the 24-week post-treatment follow-up study are shown in FIG. 1. FIGS. 2 and 3 show the mean change in dyspareunia and dyschezia scores for such patients over the 24-week treatment period and a 12-week portion of the post-treatment follow-up period.
compound,measurement,setting,value
"COc1cc(F)c(-n2c(=O)[nH]c3csc(C(=O)O)c3c2=O)cc1OCc1c(OC)ccc(F)c1F [Compound (VI), 3-[2-fluoro-5-(2,3-difluoro-6-methoxybenzyloxy)4-methoxyphenyl]-2,4-dioxo-1,2,3,4-tetrahydrothieno [3,4d]pyrimidine-5-carboxylic acid]","p value: Improvement in quality of life, Change from baseline in quality of life (QoL) symptom severity score (LS mean)",[1]; 100 mg/day,p = 0.002
same,"p value: Improvement in quality of life, Change from baseline in quality of life (QoL) symptom severity score (LS mean)",[1]; 200 mg/day + once-daily ABT,p < 0.001
same,proportion of patients with menstrual blood loss ≤80 mL and ≥50% reduction from baseline,"[1]; 100 mg per day without ABT, p=0.003, placebo 35%",56.4%
same,proportion of patients with menstrual blood loss ≤80 mL and ≥50% reduction from baseline,"[1]; 200 mg per day + ABT (1.0 mg E2 + 0.5 mg NETA), p<0.001, placebo 35%",75.5%
same,"bone mineral density, lumbar spine","[1]; once-daily treatment, 24 and 52 weeks, FIG. 9",does not induce a substantial decrease in bone mineral density
same,affinity for human GnRH receptor,human GnRH receptor,27.4 nM
same,Overall Pelvic Pain Responder Rate (VRS score reduction of > 30% from baseline),"[2]; 75 mg once daily (choline salt), after 24 weeks of treatment, n = 48",70.8%
same,Overall Pelvic Pain Responder Rate (VRS score reduction of > 30% from baseline),"[2]; 75 mg once daily for 24 weeks, 12 weeks after cessation of treatment, n = 7",87.5%
same,Overall Pelvic Pain Responder Rate (VRS score reduction of > 30% from baseline),"[2]; 200 mg once daily (choline salt), after 24 weeks of treatment, n = 44",77.3%
same,Overall Pelvic Pain Responder Rate (VRS score reduction of > 30% from baseline),"[2]; 200 mg once daily for 24 weeks, 12 weeks after cessation of treatment, n = 10",70.0%
same,"dyspareunia, Verbal Rating Score (VRS)","[2]; after cessation of 24-week once-daily treatment, 12-week portion of follow-up, FIG. 2",sustained reduction
same,"dyschezia, Numerical Rating Score (NRS)","[2]; after cessation of 24-week once-daily treatment, 12-week portion of follow-up, FIG. 3",sustained reduction
same,Bone Mineral Density (Mean % change from baseline),"[2]; 75 mg once daily for 24 weeks, 12 weeks after cessation of treatment",+0.313%
same,Bone Mineral Density (Mean % change from baseline),"[2]; 75 mg once daily, after 24 weeks of treatment",−0.798%
same,Bone Mineral Density (Mean % change from baseline),"[2]; 200 mg once daily for 24 weeks, 12 weeks after cessation of treatment",+1.135%
same,Bone Mineral Density (Mean % change from baseline),"[2]; 200 mg once daily, after 24 weeks of treatment",−2.602%
